The source of these data is US4965351A, “4-demethoxy-4-amino-anthracyclines” (Farmitalia Carlo Erba S.R.L., priority 1987, dated 1990).

In brackets after ≈: the same amount, converted by molar mass. Read-outs that look alike come from different tables or passages of the source.

Data set [1] relates to human colon adenocarcinoma cells sensitive (LoVo) to doxorubicin. The data set can be described thus: Colony inhibition test after 4 h treatment, LoVo (in vitro cytotoxicity). It is filed as cell-based. As to conditions: read-out: LoVo ID50. The method, then: (§1) The glycosides are antitumor agents. The activity of a representative compound of formula (I), 4-demethoxy-4-amino-daunorubicin (Ia), has been assessed by comparing its in vitro cytotoxicity against that of daunorubicin (DNR) in human colon adenocarcinoma cells sensitive (LoVo) or resistant (LoVo/DX) to doxorubicin.
(§2) Colony inhibition test after 4 h. treatment.

Data set [2] concerns human colon adenocarcinoma cells resistant (LoVo/DX) to doxorubicin. The data set can be described thus: Colony inhibition test after 4 h treatment, LoVo/DX (in vitro cytotoxicity). It is filed as cell-based. As to conditions: read-out: LoVo/DX ID50. Here is the method: as §1, §2
In data set [3] the test system is disseminated Gross leukaemia. Briefly: In vivo activity against disseminated Gross leukaemia in mice, treatment i.v. on day 1 after tumor inoculum. An excerpt:
The in vivo activities of (Ia) and DNR against disseminated Gross leukaemia in mice also determined.
Treatment i.v on day 1 after tumor inoculum
TOX represents toxic death

Consider `CC(=O)[C@]1(O)Cc2c(O)c3c(c(O)c2[C@@H](O[C@H]2C[C@H](N)[C@H](O)[C@H](C)O2)C1)C(=O)c1c(N)cccc1C3=O` [Ia, 4-demethoxy-4-amino-daunorubicin], for which the IC50 in data set [1] (LoVo cells (doxorubicin-sensitive), 4 h treatment, colony inhibition) stood at 0.7 mg/L (≈ 1.37 µM); in data set [2], 99 mg/L (≈ 193 µM). Also, the results for the T/C % in data set [3] (1.6 mg/Kg i.v. on day 1), in data set [3] (1.9 mg/Kg i.v. on day 1) and in data set [3] (2.29 mg/Kg i.v. on day 1) were 183%, 192% and 200%, respectively. The “TOX (toxic death)” value is given as 0/10 in data set [3] (1.6 mg/Kg i.v. on day 1), 0/10 in data set [3] (1.9 mg/Kg i.v. on day 1) and 1/10 in data set [3] (2.29 mg/Kg i.v. on day 1).

Regarding `COc1cccc2c1C(=O)c1c(O)c3c(c(O)c1C2=O)C[C@@](O)(C(C)=O)C[C@@H]3O[C@H]1C[C@H](N)[C@H](O)[C@H](C)O1` [DNR, daunorubicin], the IC50 came out at 50.3 mg/L (≈ 95.4 µM) in data set [1] (LoVo, 4 h) and 1800 mg/L (≈ 3420 µM) in data set [2]. Besides, the figures for the T/C % in data set [3] (10 mg/Kg i.v. on day 1), in data set [3] (15 mg/Kg i.v. on day 1) and in data set [3] (22.5 mg/Kg i.v. on day 1) were 133%, 167% and 200%, respectively. Besides, the “TOX (toxic death)” value in data set [3] (10 mg/Kg i.v. on day 1) is listed as 0/10; in data set [3] (15 mg/Kg i.v. on day 1), 0/10; in data set [3] (22.5 mg/Kg i.v. on day 1), 1/10.
